Measured values from US20230172189A1, “Methods for Extending the Shelf-life of Stored Donor Blood and/or Red Blood Cells and Treated Red Blood Cell Compositions Produced Thereby” (Ohio University, priority 2020, published 2023).

Legend:
[1] = tested on: RBCs; assay: Hemolysis of RBCs during lipid exchange (UV-Vis absorbance at 541 nm); assay type: cell-based; conditions: for hemolysis of RBCs during lipid exchange: exogenous lipid loaded into MαCD, one hour incubation
Procedure: The release of hemoglobin from the RBCs is considered as a sign of disrupting the cell membrane and consequently extracting the inner leaflet.
The hemolysis of RBCs during lipid exchange was measured using UV-Vis spectroscopy.
Presence of hemoglobin in the exchange solution is believed to be a disruption of the RBCs, lead to extracting the inner leaflet of the membrane. To monitor the amount of hemolysis after the exchange, the cells were centrifuged at 750×g for 5 minutes, 200 μL of the supernatant was collected, and its absorbance at 541 nm was measured using a plate reader. RBCs suspended in DPBS and water for 1 hour, at the same hematocrit concentrations as the ones used for exchange experiments, were used as negative and positive controls for the hemolysis. Both controls were also centrifuged at 750×g for 5 minutes.

[2] = tested on: RBCs; assay: Confocal microscopy of RBCs after exchange with a fluorescent lipid; assay type: cell-based; conditions: 19:1 POPS:NBD-PE, one hour incubation, with or without MαCD
Procedure: To confirm that MαCD mediates the lipid exchange and that the lipids are exchanged with the outer leaflet only, confocal microscopy was performed on the RBCs after the exchange. A mixture of POPS and 1,2-dipalmitoyl-sn-glycero-3-phosphoethanolamine-N-(7-nitro-2-1,3-benzoxadiazol-4-yl) (NBD-PE) with a molar ratio 19:1 POPS:NBD-PE was used. RBCs are incubated for one hour with the lipid mixture without MαCD (FIG. 2A) or with the lipid mixture loaded into MαCD (FIG. 2B).
Delivering of the phospholipids to the membrane was studied using fluorescence. A quenching agent was used to diminish the fluorescence to examine whether the lipids were delivered to the outer or inner leaflet. Organic solutions of a fluorescent phospholipid (NBD-PE) and POPS were mixed to a molar ratio of 1:19 NBD-PE:POPS. The other steps prior to the exchange experiment were as mentioned before. After the exchange, the cells were centrifuged at 750×g for 5 minutes, the precipitated RBCs were collected, re-suspended in 10% sucrose in DPBS, loaded onto a glass slide, and imaged using a confocal microscope. Sodium dithionite solution was made to a concentration of 50 mM and was added to an aliquot of the exchanged RBCs 1 minute prior to loading onto glass slides and imaging.

Row | Compound | hemolysis of RBCs during lipid exchange [1] | capability of mediating the exchange process ([1]; two MαCD concentrations tested during optimisation) | mediation of lipid exchange with RBC outer leaflet [2]
1 | CCCCCCCC/C=C\CCCCCCCC(=O)OC(COC(=O)CCCCCCCCCCCCCCC)COP(=O)([O-])OCC[N+](C)(C)C (stereo not shown) [POPC, 1-palmitoyl-2-oleoyl-glycero-3-phosphocholine] | lowest hemolysis | – | –
2 | CCCCCCCC/C=C\CCCCCCCC(=O)O[C@H](COC(=O)CCCCCCCCCCCCCCC)COP(=O)(O)OC[C@H](N)C(=O)O [POPS, 1-palmitoyl-2-oleoyl-sn-glycero-3-phospho-L-serine] | lowest hemolysis | – | –
3 | methyl-α-cyclodextrin [MαCD] | – | both concentrations were capable of mediating the exchange process | lipid exchange only occurs in the presence of MαCD
